These results are taken from ChEMBL document CHEMBL3616383, “Discovery of novel 5,6,7,8-tetrahydro[1,2,4]triazolo[4,3-a]pyridine derivatives as γ-secretase modulators” (Bioorg Med Chem Lett, 2015).

Structures are written as SMILES. Some results are limits rather than exact numbers.

Series [1] is described as follows: Inhibition of gamma-secretase in rat primary neuronal cells assessed as reduction in amyloid beta (1 to 42) production. As to conditions: Primary neuron. It counts as cell-based.
Series [2] in a line: Lipophilicity, log D of the compound at pH 7.4 by reversed phase chromatography. It counts as physicochemical. As to conditions: buffer.
Series [3] in a line: Inhibition of gamma-secretase in rat primary neuronal cells assessed as reduction in amyloid beta (1 to 40) production. It is filed as cell-based. Particulars: Primary neuron.
The nature of series [4]: Inhibition of gamma-secretase-mediated Notch processing in rat primary neuronal cells. It counts as cell-based. Particulars: Primary neuron.
Series [5] in a line: Drug level in C57BL/6J mouse cortex at 10 mg/kg, po after 3 hrs. As to conditions: read-out: Drug uptake. It is filed as ADME, organism-based.
Series [6] is described as follows: Drug level in C57BL/6J mouse plasma at 10 mg/kg, po after 3 hrs. It is filed as ADME, organism-based.
Series [7] relates to Mus musculus. Put plainly: Reduction in amyloid beta (1 to 42) levels in C57BL/6J mouse brain at 10 mg/kg, po after 3 hrs. It is filed as functional.
In series [8] the test system is Mus musculus. Put plainly: Reduction in amyloid beta (1 to 40) levels in C57BL/6J mouse brain at 10 mg/kg, po after 3 hrs. It counts as functional.
Series [9] concerns Mus musculus. Put plainly: Reduction in amyloid beta (1 to 42) levels in C57BL/6J mouse plasma at 10 mg/kg, po after 3 hrs. It is filed as functional.
Series [10] deals with Mus musculus. Briefly: Reduction in amyloid beta (1 to 40) levels in C57BL/6J mouse plasma at 10 mg/kg, po after 3 hrs. It is filed as functional.

Consider `COc1cc(-c2nnc(Cc3ccc(Cl)c(Cl)c3)[nH]2)ccc1-c1cnc(C)o1`, for which, in series [1], the IC50 (usually the concentration that gives 50% inhibition) worked out at 2000 nM. Also, in series [2], the chromatographic logD (as a rule, lipophilicity estimated from chromatographic retention) is 4.1.

With `COc1cc(-c2nc3n(n2)CCCC3c2ccc(Cl)c(Cl)c2)ccc1-c1cnc(C)o1` (stereo not drawn), in series [1], the IC50 came out at 860 nM. Besides, the chromatographic logD in series [2] was 4.4.

For `COc1cc(-c2nnc3n2CCCC3c2ccc(Cl)c(Cl)c2)ccc1-c1cnc(C)o1` (stereo not drawn), in series [1], the IC50 turned out to be 210 nM. This compound also gave a chromatographic logD in series [2] of 3.2.

For `COc1cc(-c2nnn3c2CCCC3c2ccc(Cl)c(Cl)c2)ccc1-c1cnc(C)o1` (stereo not drawn), in [1], the IC50 turned out to be 210 nM. For the same compound, the chromatographic logD in series [2] is 4.2.

With `COc1cc(-c2nnc3n2CCCCC3c2ccc(Cl)c(Cl)c2)ccc1-c1cnc(C)o1` (stereo not drawn), the IC50 in [1] turned out to be 220 nM. In addition, the chromatographic logD in [2] worked out at 3.5.

Consider `COc1cc(-c2nnc3n2CCC3c2ccc(Cl)c(Cl)c2)ccc1-c1cnc(C)o1` (stereo not drawn), for which the IC50 in series [1] is 630 nM. Besides, the chromatographic logD in series [2] stood at 3.3.

For the compound `COc1cc(-c2nnc3n2CCC=C3c2ccc(Cl)c(Cl)c2)ccc1-c1cnc(C)o1`, the IC50 in series [1] stood at 600 nM. Moreover, the chromatographic logD in series [2] was 3.6.

For `COc1cc(-c2nnc3n2CCOC3c2ccc(Cl)c(Cl)c2)ccc1-c1cnc(C)o1` (stereo not drawn), the IC50 in series [1] was 530 nM. Also, the chromatographic logD in [2] is 3.1.

Consider `COc1cc(-c2nnc3n2CCCC3c2ccc(Cl)cc2)ccc1-c1cnc(C)o1` (stereo not drawn), for which the IC50 in series [1] amounted to 570 nM. In [2], the chromatographic logD was found to be 2.8.

Turning to `COc1cc(-c2nnc3n2CCCC3c2ccc(C(F)(F)F)cc2)ccc1-c1cnc(C)o1` (stereo not drawn), the IC50 in [1] was determined as 510 nM. Also, the chromatographic logD in [2] stood at 2.9.

As for `COc1cc(-c2nnc3n2CCCC3c2ccc(F)cc2)ccc1-c1cnc(C)o1` (stereo not drawn), the IC50 in series [1] amounted to 1500 nM. This compound returned a chromatographic logD in [2] of 2.4.

Regarding `COc1ccc(C2CCCn3c(-c4ccc(-c5cnc(C)o5)c(OC)c4)nnc32)cc1` (stereo not drawn), the IC50 in series [1] amounted to 1900 nM. The chromatographic logD in series [2] was 2.4.

With `COc1cc(-c2nnc3n2CCCC3c2ccc(N3CCOCC3)cc2)ccc1-c1cnc(C)o1` (stereo not drawn), the IC50 in [1] was found to be 2300 nM. Further, the chromatographic logD in series [2] amounted to 2.3.

Take `COc1cc(-c2nnc3n2CCCC3c2cccc(C(F)(F)F)c2)ccc1-c1cnc(C)o1` (stereo not drawn): the IC50 in series [1] was determined as 370 nM. The compound further registered a chromatographic logD in series [2] of 2.8.

`COc1cc(-c2nnc3n2CCCC3c2ccccc2C(F)(F)F)ccc1-c1cnc(C)o1` (stereo not drawn): the IC50 in series [1] turned out to be 380 nM. Also, the chromatographic logD in [2] was determined as 3.

Take `COc1cc(-c2nnc3n2CCCC3c2ccc(Cl)c(C(F)(F)F)c2)ccc1-c1cnc(C)o1` (stereo not drawn): the IC50 in [1] amounted to 220 nM. This compound displayed a chromatographic logD in [2] of 3.2.

As to `COc1cc(-c2nnc3n2CCCC3c2cc(C(F)(F)F)ccc2C(F)(F)F)ccc1-c1cnc(C)o1` (stereo not drawn), the half-maximal inhibitory concentration (IC50) in series [1] came out at 300 nM. The compound further showed a chromatographic logD in series [2] of 3.3.

On to `COc1cc(-c2nnc3n2CCCC3c2ccc(Cl)cc2C(F)(F)F)ccc1-c1cnc(C)o1` (stereo not drawn), for which the IC50 in series [1] was found to be 84 nM. Also, the chromatographic logD in series [2] came to 3.5.

On to `COc1cc(-c2nnc3n2CCC[C@H]3c2ccc(Cl)cc2C(F)(F)F)ccc1-c1cnc(C)o1`, for which, in series [1], the IC50 amounted to 830 nM. For the same compound, the chromatographic logD in series [2] was 3.5.

`COc1cc(-c2nnc3n2CCC[C@@H]3c2ccc(Cl)cc2C(F)(F)F)ccc1-c1cnc(C)o1`: the IC50 in [1] was 60 nM; in series [3], 490 nM; in series [4] it was > 10000 nM. This compound also registered a chromatographic logD in series [2] of 3.5. Moreover, the concentration at 3 h came out at 2330 ng/g in series [5] and 6450 ng/mL in series [6]. The % of vehicle at 10 mg/kg is 50% in the series with Mus musculus [7], 75% in the series on Mus musculus [8], 31% in the series on Mus musculus [9] and 63% in the series on Mus musculus [10].
